Experiments:
Assay in all cases: relative viability (nuclei count vs DMSO), 5 days (fraction); higher = more cells survive
NCI-H727 = test system: NCI-H727
Outline: (§1)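 A single step with final 0.05% Triton X-100, 1% formaldehyde and 1 ug/ml Hoechst fixed the cells and stained nuclei 5 days after treatment. Lung cancer cell lines in 1536-well plates had been treated by pin tool the day after seeding with one drug alone or a fixed anchor-drug dose plus five library-drug doses (not always all listed) in √10 steps, and nuclei were counted on 4× images. Relative viability is the ratio of nuclei in treated wells to nuclei in vehicle wells, taken as the median of duplicate plates.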

COR-L 105 = test system: COR-L 105
Outline: as §1

HOP-62 = test system: HOP-62
Outline: as §1

NCI-H1355 = test system: NCI-H1355
Outline: as §1

HCC-827 = test system: HCC-827
Outline: as §1

NCI-H1755 = test system: NCI-H1755
Outline: as §1

SW 1573 = test system: SW 1573
Outline: as §1

HCC-366 = test system: HCC-366
Outline: as §1

HARA = test system: HARA
Outline: as §1

NCI-H23 = test system: NCI-H23
Outline: as §1

NCI-H1975 = test system: NCI-H1975
Outline: as §1

SK-LU-1 = test system: SK-LU-1
Outline: as §1

NCI-H522 = test system: NCI-H522
Outline: as §1

NCI-H1437 = test system: NCI-H1437
Outline: as §1

NCI-H1915 = test system: NCI-H1915
Outline: as §1

LCLC-103H = test system: LCLC-103H
Outline: as §1

A-427 = test system: A-427
Outline: as §1

NCI-H460 = test system: NCI-H460
Outline: as §1

EMC-BAC-2 = test system: EMC-BAC-2
Outline: as §1

NCI-H1792 = test system: NCI-H1792
Outline: as §1

NCI-H2009 = test system: NCI-H2009
Outline: as §1

NCI-H1395 = test system: NCI-H1395
Outline: as §1

Clc1ccc(Nc2nnc(Cc3ccncc3)c3ccccc23)cc1 [Vatalanib] + Nc1ncn([C@H]2C[C@H](O)[C@@H](CO)O2)c(=O)n1 [Decitabine] (partner 2 µM)
relative viability (NCI-H727; first compound 0.1265 µM): 0.801 | relative viability (NCI-H727; first compound 0.4 µM): 0.539 | relative viability (NCI-H727; first compound 1.265 µM): 0.821 | relative viability (NCI-H727; first compound 4 µM): 0.973 | relative viability (COR-L 105; first compound 0.04 µM): 0.722 | relative viability (COR-L 105; first compound 0.1265 µM): 0.706 | relative viability (COR-L 105; first compound 0.4 µM): 0.796 | relative viability (COR-L 105; first compound 1.265 µM): 0.681 | relative viability (COR-L 105; first compound 4 µM): 0.714 | relative viability (HOP-62; first compound 0.04 µM): 0.183 | relative viability (HOP-62; first compound 0.1265 µM): 0.216 | relative viability (HOP-62; first compound 0.4 µM): 0.223 | relative viability (HOP-62; first compound 1.265 µM): 0.239 | relative viability (HOP-62; first compound 4 µM): 0.205 | relative viability (NCI-H1355; first compound 0.04 µM): 0.393 | relative viability (NCI-H1355; first compound 0.1265 µM): 0.328 | relative viability (NCI-H1355; first compound 0.4 µM): 0.343 | relative viability (NCI-H1355; first compound 1.265 µM): 0.33 | relative viability (NCI-H1355; first compound 4 µM): 0.356 | relative viability (HCC-827; first compound 0.04 µM): 0.28 | relative viability (HCC-827; first compound 0.1265 µM): 0.308 | relative viability (HCC-827; first compound 1.265 µM): 0.266 | relative viability (HCC-827; first compound 4 µM): 0.343 | relative viability (NCI-H1755; first compound 0.04 µM): 0.691 | relative viability (NCI-H1755; first compound 0.1265 µM): 0.76 | relative viability (NCI-H1755; first compound 0.4 µM): 0.745 | relative viability (NCI-H1755; first compound 1.265 µM): 0.707 | relative viability (NCI-H1755; first compound 4 µM): 0.728 | relative viability (SW 1573; first compound 0.04 µM): 0.541 | relative viability (SW 1573; first compound 0.1265 µM): 0.482 | relative viability (SW 1573; first compound 0.4 µM): 0.39 | relative viability (SW 1573; first compound 1.265 µM): 0.455 | relative viability (SW 1573; first compound 4 µM): 0.493 | relative viability (HCC-366; first compound 0.04 µM): 0.328 | relative viability (HCC-366; first compound 0.1265 µM): 0.271 | relative viability (HCC-366; first compound 0.4 µM): 0.395 | relative viability (HCC-366; first compound 1.265 µM): 0.312 | relative viability (HCC-366; first compound 4 µM): 0.348 | relative viability (HARA; first compound 0.04 µM): 0.623 | relative viability (HARA; first compound 0.1265 µM): 0.446 | relative viability (HARA; first compound 0.4 µM): 0.463 | relative viability (HARA; first compound 1.265 µM): 0.526 | relative viability (HARA; first compound 4 µM): 0.521 | relative viability (NCI-H23; first compound 0.04 µM): 0.355 | relative viability (NCI-H23; first compound 0.1265 µM): 0.324 | relative viability (NCI-H23; first compound 0.4 µM): 0.314 | relative viability (NCI-H23; first compound 1.265 µM): 0.291 | relative viability (NCI-H23; first compound 4 µM): 0.348 | relative viability (NCI-H1975; first compound 0.04 µM): 0.423 | relative viability (NCI-H1975; first compound 0.1265 µM): 0.378 | relative viability (NCI-H1975; first compound 0.4 µM): 0.401 | relative viability (NCI-H1975; first compound 1.265 µM): 0.391 | relative viability (NCI-H1975; first compound 4 µM): 0.397 | relative viability (SK-LU-1; first compound 0.04 µM): 0.614 | relative viability (SK-LU-1; first compound 0.1265 µM): 0.584 | relative viability (SK-LU-1; first compound 0.4 µM): 0.668 | relative viability (SK-LU-1; first compound 1.265 µM): 0.668 | relative viability (SK-LU-1; first compound 4 µM): 0.52 | relative viability (NCI-H522; first compound 0.04 µM): 0.711 | relative viability (NCI-H522; first compound 0.1265 µM): 0.685 | relative viability (NCI-H522; first compound 0.4 µM): 0.698 | relative viability (NCI-H522; first compound 1.265 µM): 0.696 | relative viability (NCI-H522; first compound 4 µM): 0.596 | relative viability (NCI-H1437; first compound 0.04 µM): 0.53 | relative viability (NCI-H1437; first compound 0.1265 µM): 0.523 | relative viability (NCI-H1437; first compound 0.4 µM): 0.573 | relative viability (NCI-H1437; first compound 1.265 µM): 0.587 | relative viability (NCI-H1437; first compound 4 µM): 0.608 | relative viability (NCI-H1915; first compound 0.04 µM): 0.251 | relative viability (NCI-H1915; first compound 0.1265 µM): 0.257 | relative viability (NCI-H1915; first compound 0.4 µM): 0.273 | relative viability (NCI-H1915; first compound 1.265 µM): 0.257 | relative viability (NCI-H1915; first compound 4 µM): 0.276 | relative viability (LCLC-103H; first compound 0.04 µM): 0.715 | relative viability (LCLC-103H; first compound 0.1265 µM): 0.722 | relative viability (LCLC-103H; first compound 0.4 µM): 0.759 | relative viability (LCLC-103H; first compound 1.265 µM): 0.71 | relative viability (LCLC-103H; first compound 4 µM): 0.725 | relative viability (A-427; first compound 0.04 µM): 0.6 | relative viability (A-427; first compound 0.1265 µM): 0.544 | relative viability (A-427; first compound 0.4 µM): 0.601 | relative viability (A-427; first compound 4 µM): 0.535 | relative viability (NCI-H460; first compound 0.04 µM): 0.502 | relative viability (NCI-H460; first compound 0.1265 µM): 0.481 | relative viability (NCI-H460; first compound 0.4 µM): 0.482 | relative viability (NCI-H460; first compound 1.265 µM): 0.47 | relative viability (NCI-H460; first compound 4 µM): 0.495 | relative viability (EMC-BAC-2; first compound 0.04 µM): 0.984 | relative viability (EMC-BAC-2; first compound 0.1265 µM): 0.952 | relative viability (EMC-BAC-2; first compound 0.4 µM): 0.983 | relative viability (EMC-BAC-2; first compound 4 µM): 0.956 | relative viability (NCI-H1792; first compound 0.04 µM): 0.614 | relative viability (NCI-H1792; first compound 0.1265 µM): 0.465 | relative viability (NCI-H1792; first compound 0.4 µM): 0.608 | relative viability (NCI-H1792; first compound 1.265 µM): 0.515 | relative viability (NCI-H1792; first compound 4 µM): 0.55 | relative viability (NCI-H2009; first compound 0.04 µM): 0.378 | relative viability (NCI-H2009; first compound 0.1265 µM): 0.334 | relative viability (NCI-H2009; first compound 0.4 µM): 0.343 | relative viability (NCI-H2009; first compound 1.265 µM): 0.404 | relative viability (NCI-H2009; first compound 4 µM): 0.396 | relative viability (NCI-H1395; first compound 0.04 µM): 0.718 | relative viability (NCI-H1395; first compound 0.1265 µM): 0.702 | relative viability (NCI-H1395; first compound 0.4 µM): 0.722 | relative viability (NCI-H1395; first compound 4 µM): 0.665

Source: the supplement of paper PMC10307832
